Where two headings read alike, the source gives them in different places.
How the values were obtained:
RSV replicon = assay: microbe, parasite or virus in culture; format: cell-based; settings: human respiratory syncytial virus, read-out: EC50, the concentration of the drug required for reducing RSV replicon RNA by 50%
[1] = Cytotoxicity Determination (CCK-8, without addition of virus); format: cell-based; settings: human
In short: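 HEp-2 cells were seeded at 1,500 cells/well one day before compound addition. Compounds were tested without virus in duplicate over 7 points from 100 μM in 1/2 steps, with 1% final DMSO, 5 days at 37 °C, 5% CO2. Viability was read by CCK-8 after 3-4 hours.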

recombinant RSV complex = recombinant RSV complex (Human respiratory syncytial virus A, UniProt P28887); assay: RSV Polymerase Inhibition Assay; format: biochemical
recombinant RSV complex, sequence (P28887 whole entry): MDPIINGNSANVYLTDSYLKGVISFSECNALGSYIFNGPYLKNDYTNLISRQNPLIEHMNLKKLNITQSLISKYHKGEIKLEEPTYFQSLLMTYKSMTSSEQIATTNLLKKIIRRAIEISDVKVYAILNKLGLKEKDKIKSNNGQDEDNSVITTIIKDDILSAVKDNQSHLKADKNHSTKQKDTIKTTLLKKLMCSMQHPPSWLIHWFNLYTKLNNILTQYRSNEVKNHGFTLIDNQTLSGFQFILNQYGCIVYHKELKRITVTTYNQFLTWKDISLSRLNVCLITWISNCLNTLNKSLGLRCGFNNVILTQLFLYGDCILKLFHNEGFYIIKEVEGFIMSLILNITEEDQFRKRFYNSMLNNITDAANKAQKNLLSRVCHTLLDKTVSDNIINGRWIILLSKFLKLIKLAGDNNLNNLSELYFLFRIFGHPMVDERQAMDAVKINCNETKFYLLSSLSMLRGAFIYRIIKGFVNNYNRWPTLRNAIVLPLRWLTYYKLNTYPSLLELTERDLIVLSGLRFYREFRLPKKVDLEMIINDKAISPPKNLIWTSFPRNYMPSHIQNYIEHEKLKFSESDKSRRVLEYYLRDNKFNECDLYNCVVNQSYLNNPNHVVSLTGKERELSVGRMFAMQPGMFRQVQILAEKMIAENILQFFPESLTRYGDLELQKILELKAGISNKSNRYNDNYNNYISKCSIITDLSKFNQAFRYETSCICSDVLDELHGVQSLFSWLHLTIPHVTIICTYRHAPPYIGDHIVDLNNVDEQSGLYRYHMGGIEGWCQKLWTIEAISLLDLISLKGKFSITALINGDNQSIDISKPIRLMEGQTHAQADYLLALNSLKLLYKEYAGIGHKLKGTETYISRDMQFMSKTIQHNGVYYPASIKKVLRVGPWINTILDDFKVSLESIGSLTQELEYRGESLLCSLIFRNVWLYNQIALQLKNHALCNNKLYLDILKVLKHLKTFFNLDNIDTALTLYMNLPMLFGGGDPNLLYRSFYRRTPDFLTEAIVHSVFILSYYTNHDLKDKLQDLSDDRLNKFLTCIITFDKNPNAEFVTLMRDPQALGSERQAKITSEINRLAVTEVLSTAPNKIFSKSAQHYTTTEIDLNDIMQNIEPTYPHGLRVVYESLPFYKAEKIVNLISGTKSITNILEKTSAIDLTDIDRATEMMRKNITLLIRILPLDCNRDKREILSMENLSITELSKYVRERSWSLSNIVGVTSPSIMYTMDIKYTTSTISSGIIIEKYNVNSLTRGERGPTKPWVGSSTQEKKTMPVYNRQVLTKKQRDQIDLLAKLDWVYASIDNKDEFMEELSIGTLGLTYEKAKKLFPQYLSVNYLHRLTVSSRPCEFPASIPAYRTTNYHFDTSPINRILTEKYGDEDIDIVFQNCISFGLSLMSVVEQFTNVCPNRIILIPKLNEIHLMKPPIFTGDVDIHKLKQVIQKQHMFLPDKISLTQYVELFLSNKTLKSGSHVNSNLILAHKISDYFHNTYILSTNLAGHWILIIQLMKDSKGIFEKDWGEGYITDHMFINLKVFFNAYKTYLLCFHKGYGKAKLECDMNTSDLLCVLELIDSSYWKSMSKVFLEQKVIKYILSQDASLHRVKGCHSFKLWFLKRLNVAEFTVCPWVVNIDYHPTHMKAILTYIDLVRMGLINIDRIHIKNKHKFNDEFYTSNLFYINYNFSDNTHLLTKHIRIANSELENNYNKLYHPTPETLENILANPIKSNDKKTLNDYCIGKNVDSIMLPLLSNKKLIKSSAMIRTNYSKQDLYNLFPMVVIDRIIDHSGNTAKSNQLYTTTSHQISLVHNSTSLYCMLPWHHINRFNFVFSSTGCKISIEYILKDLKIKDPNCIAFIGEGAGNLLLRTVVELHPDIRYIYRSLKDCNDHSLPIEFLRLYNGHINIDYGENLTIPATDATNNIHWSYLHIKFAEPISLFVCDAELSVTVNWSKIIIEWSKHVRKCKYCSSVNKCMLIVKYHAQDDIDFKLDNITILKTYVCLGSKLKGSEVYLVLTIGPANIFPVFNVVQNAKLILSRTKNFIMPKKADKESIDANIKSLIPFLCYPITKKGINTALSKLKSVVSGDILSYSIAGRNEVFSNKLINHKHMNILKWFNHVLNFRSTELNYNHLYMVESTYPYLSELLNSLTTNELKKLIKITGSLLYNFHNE
recombinant RSV complex, sequence (P03421 whole entry, further chain): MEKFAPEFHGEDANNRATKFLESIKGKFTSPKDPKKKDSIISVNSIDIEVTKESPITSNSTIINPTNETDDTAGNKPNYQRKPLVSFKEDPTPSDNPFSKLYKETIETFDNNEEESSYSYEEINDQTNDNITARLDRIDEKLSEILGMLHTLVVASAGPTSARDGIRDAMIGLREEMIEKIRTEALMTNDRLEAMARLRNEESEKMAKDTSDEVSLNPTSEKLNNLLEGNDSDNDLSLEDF
In short: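 10 nM recombinant RSV polymerase complex in Tris-HCl pH 7.5, 6 mM MgCl2 with RNA oligonucleotide template and radionucleotides, incubated 2 h at 30 °C with increasing inhibitor concentrations. Reaction stopped with EDTA; radiolabeled RNA product counted by scintillation.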

[2] = test system: Respiratory Syncytial Virus (RSV) long strain; assay: microbe, parasite or virus in culture; format: cell-based; settings: human respiratory syncytial virus, Tables A and B list compounds by EC50 band
In short: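 HEp-2 cells infected with 100 TCID50 virus per well, compounds in duplicate, 9-point 1/3 dilutions from 100 μM or 1 μM, 1% DMSO. After 5 days at 37 °C, cell viability (CPE protection) read by CCK-8 absorbance at 450 nm, 630 nm background.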

[3] = 50% cytotoxicity concentration (CC50)
[4] = 120 h, read-out: 50% effective concentration (EC50), HEp-2 cells infected with RSV long strain, 5 days, CCK-8 readout
[5] = HEp-2, 120 h, read-out: 50% effective concentration (EC50), HEp-2 cells infected with RSV long strain, 5 days, CCK-8 readout

SMILES	EC50 (RSV replicon) [µM]	CC50 at 5 days [1, 3] [µM]	IC50 (recombinant RSV complex) [µM]	EC50 [2, 4] [µM]	EC50 [2, 5] [µM]	CC50 at 5 days ([1]; no virus, 5 days, CCK-8 readout, Tables C and D list compounds by CC50 band) [µM]
COc1cc(C(=O)NCC(C)(O)c2cc(C(C)(C)N)cc(-c3ccc(F)c(Cl)c3)n2)ccc1OC1CC1 (stereo not shown) [Compound 460]	< 1	10 to 100	< 1	< 1		
COc1cc(C(=O)NCC(O)(CC2CNC2)c2ccc(OC)c(-c3ccc(F)c(Cl)c3)n2)ccc1OC1CC1 (stereo not shown) [Compound 461]	1 to 50	10 to 100	< 1		< 1	
COc1cc(C(=O)NCC(O)(CN2CCC2)c2ccc(OC)c(-c3ccc(F)c(Cl)c3)n2)ccc1OC1CC1 (stereo not shown) [Compound 462]	< 1	10 to 100	< 1		< 1	
CNC(C)c1cc(-c2ccc(F)c(Cl)c2)nc(C(O)(CNC(=O)c2ccc(OC3CC3)c(OC)c2)C(F)(F)F)c1 (stereo not shown) [Compound 466]	< 1	10 to 100	< 1		< 1	
COc1cc(C(=O)NCC(C)(O)c2cc(C(C)(C)C)cc(-c3ccc(F)c(Cl)c3)n2)ccc1OCCO (stereo not shown) [Compound 467]	< 1	10 to 100	< 1		< 1	
COc1cc(C(=O)NCC(O)(c2ccc(OC)c(-c3ccc(F)c(Cl)c3)n2)C(F)(F)F)ccc1OC1CC(F)C1 (stereo not shown) [Compound 470]	< 1	> 100	< 1	< 1		
COc1cc(C(=O)NCC(O)(c2cc3c(c(-c4ccc(F)c(Cl)c4)n2)OCC3(C)N)C(F)(F)F)ccc1OC1CC1 (stereo not shown) [Compound 483]	< 1	10 to 100	< 1		< 1	
CNC(C)(C)c1cc(-c2ccc(F)c(Cl)c2)nc(C(O)(CNC(=O)c2ccc(O[C@H]3CCNC3=O)c(OC)c2)C(F)(F)F)c1 (stereo partly shown) [Compound 485]	< 1	10 to 100	< 1		< 1	
CNC(C)(C)c1cc(-c2ccc(F)c(Cl)c2)nc(C(O)(CNC(=O)c2ccc(OC[C@@H](C)O)c(OC)c2)C(F)(F)F)c1 (stereo partly shown) [Compound 486]	< 1	10 to 100	< 1		< 1	
CNC(C)(C)c1cc(-c2ccc(F)c(Cl)c2)nc(C(O)(CNC(=O)c2ccc(OCC(N)=O)c(OC)c2)C(F)(F)F)c1 (stereo not shown) [Compound 487]	< 1	10 to 100	< 1		< 1	
CNC(C)(C)c1cc(-c2ccc(F)c(Cl)c2)nc(C(O)(CNC(=O)c2cc(OC)c3ncccc3c2)C(F)(F)F)c1 (stereo not shown) [Compound 488]	< 1	10 to 100	< 1		< 1	
COc1cc(C(=O)NCC(O)(c2cc(C(C)(C)N)cc(-c3ccc(F)c(Cl)c3)n2)C(F)(F)F)ccc1OCCO (stereo not shown) [Compound 489]	< 1	10 to 100	< 1		< 1	
COc1cc(C(=O)NCC(O)(c2cc(C(C)(C)N)cc(-c3ccc(F)c(Cl)c3)n2)C(F)(F)F)ccc1OCCOC(=O)C(C)C (stereo not shown) [Compound 490]	< 1	10 to 100	< 10		< 1	
CNC(C)(C)c1cc(-c2ccc(F)c(Cl)c2)nc(C(O)(CNC(=O)c2ccc(OCCO)c(OC)c2)C(F)(F)F)c1 (stereo not shown) [Compound 491]	< 1	10 to 100	< 1		< 1	
COc1cc(C(=O)NC[C@](O)(c2cc(C(C)(C)N)cc(-c3ccc(F)cc3)n2)C(F)(F)F)ccc1OC1CC1 [Compound 496]	< 1	10 to 100	< 1		< 1	
CCOc1ccc(C(=O)NCC(O)(c2cc3c(c(-c4ccc(F)c(Cl)c4)n2)OCC3(C)N)C(F)(F)F)cc1OC (stereo not shown) [Compound 498]	< 1	10 to 100	< 1		< 1	

SMILES	EC50 (RSV replicon) [µM]	CC50 at 5 days [1, 3] [µM]	IC50 (recombinant RSV complex) [µM]	EC50 [2, 4] [µM]	EC50 [2, 5] [µM]	CC50 at 5 days ([1]; no virus, 5 days, CCK-8 readout, Tables C and D list compounds by CC50 band) [µM]
COC(=O)CNC(C)(C)c1cc(-c2ccc(F)c(Cl)c2)nc(C(O)(CNC(=O)c2ccc(OC3CC3)c(OC)c2)C(F)(F)F)c1 (stereo not shown) [Compound 500]	< 1	10 to 100	< 1	< 1		
COc1cc(C(=O)NCC(O)(c2cc(C(C)(C)NCCO)cc(-c3ccc(F)c(Cl)c3)n2)C(F)(F)F)ccc1OC1CC1 (stereo not shown) [Compound 502]	< 1	10 to 100	< 1		< 1	
COc1cc(C(=O)NCC(N)(c2ccc(OC)c(-c3ccc(F)c(Cl)c3)n2)C(F)(F)F)ccc1OC1CC1 (stereo not shown) [Compound 503]	< 1	10 to 100	< 1		< 1	
COc1cc(C(=O)NCC(N)(c2cc(C(C)(C)N)cc(-c3ccc(F)c(Cl)c3)n2)C(F)(F)F)ccc1OC1CC1 (stereo not shown) [Compound 504]	< 1	10 to 100	< 1		< 1	
COc1cc(C(=O)NCC(O)(c2cc(C3(C)CCNC3)cc(-c3ccc(F)cc3)n2)C(F)(F)F)ccc1OC1CC1 (stereo not shown) [Compound 507]	< 1	10 to 100	< 1		< 1	
COc1cc(C(=O)NCC(O)(c2ccc(CN)c(-c3ccc(F)cc3)n2)C(F)(F)F)ccc1OC1CC1 (stereo not shown) [Compound 514]	< 1	10 to 100	< 1		< 1	
COc1cc(C(=O)NCC(O)(c2cc(C(C)(C)NCC(=O)O)cc(-c3ccc(F)c(Cl)c3)n2)C(F)(F)F)ccc1OC1CC1 (stereo not shown) [Compound 515]	< 1	10 to 100	< 1		< 1	
COc1cc(C(=O)NCC(O)(c2cc(C(C)(C)NC(N)=O)cc(-c3ccc(F)c(Cl)c3)n2)C(F)(F)F)ccc1OC1CC1 (stereo not shown) [Compound 516]	< 1	10 to 100	< 1		< 1	
COc1cc(C(=O)NCC(O)(c2cc3c(c(-c4ccc(F)c(Cl)c4)n2)OCC3N)C(F)(F)F)ccc1OC1CC1 (stereo not shown) [Compound 525]	< 1	10 to 100	< 1		< 1	
COc1cc(C(=O)NCC(O)(c2cc3c(c(-c4ccc(F)c(Cl)c4)n2)CNC3(C)C)C(F)(F)F)ccc1OC1CC1 (stereo not shown) [Compound 526]	< 1	10 to 100	< 1		< 1	
COc1cc(C(=O)NCC(O)(c2cc(C(C)(C)N)cc(-c3ccc(C#N)cc3)n2)C(F)(F)F)ccc1OC1CC1 (stereo not shown) [Compound 527]	< 1		< 1		< 1	10 to 100
COc1cc(C(=O)NCC(O)(c2cc(C(N)CO)cc(-c3ccc(F)c(Cl)c3)n2)C(F)(F)F)ccc1OC1CC1 (stereo not shown) [Compound 528]	< 1	10 to 100	< 1		< 1	
COc1cc(C(=O)NCC(O)(c2cc(C(N)CO)cc(-c3ccc(F)cc3)n2)C(F)(F)F)ccc1OC1CC1 (stereo not shown) [Compound 529]	< 1	10 to 100	< 1		< 1	
CCC1(N)COc2c1cc(C(O)(CNC(=O)c1ccc(OCCO)c(OC)c1)C(F)(F)F)nc2-c1ccc(F)cc1 (stereo not shown) [Compound 530]	< 1	10 to 100	< 1	< 1		
CCC1(N)COc2c1cc(C(O)(CNC(=O)c1ccc(OC3CC3)c(OC)c1)C(F)(F)F)nc2-c1ccc(F)cc1 (stereo not shown) [Compound 531]	< 1	10 to 100	< 1		< 1	
